Measurements reported in patent publication US20240358829A1, “Lymphocyte Population and Methods for Producing Same” (AVM Biotechnology, LLC, priority 2021, published 2024).
Entries after “also recorded” stand apart in the source; their conditions may differ.

How the values were obtained:
[1] = AVM0703 R/R NHL clinical trial, blood counts; type: in vivo, human
[2] = system: CD56+γδTCR+ NKT-like cells
Protocol: For characterisation of the induced/mobilized population of NKT-like cells (AVM-NKT) in humans, whole blood from human subjects was drawn in K2 EDTA Vacutainer tube (367862, BD Biosciences, NJ) and shipped to AVM Biotechnology at room temperature. 100 μl of whole blood was stained with the following antibodies: CD45 AF700 (2D1), CD16 APC (3G8), INKT PECy7 (6B11), CD8 PE (SK1), CD14 FITC (M5E2), CD56 BV650 (5.1H11), γδTCR BV510 (B1), CD19 BV421 (HIB19), NKp44 APC (P44-8) (all from Biolegend, San Diego, CA) and CD3 APCVio770 (BW264/56), (Miltenyi Biotec, San Jose, CA), 7-AAD, (Biolegend, San Diego CA) was included to distinguish the live and dead cells. Antibody staining was performed for 15 minutes at room temperature. Erythrocytes present in the sample were lysed using BD FACS lyse (BD Biosciences, San Diego CA) for 10 minutes at room temperature, then washed and resuspended in 300 μl 1×DPBS CMF. Healthy patient blood from BloodWorks (Seattle, WA), unstained and fluorescence minus one (FMO) were included as controls. 250 μl sample was analyzed on MACSQuant 16 (Serial #40150, Miltenyi Biotec, San Jose, CA) flow cytometer. Data was analyzed using Kaluza 2.1 (Beckman Coulter Lifesciences, Indianapolis, IN) software for different immune population. Data obtained from flow cytometry analyzed by Kaluza were combined to determine different cell populations gated from Live CD45 Lymphocytes: CD3+ T cell, CD8+ cytotoxic T cell, CD3+CD56+ (NKT cells) CD3-CD56+, CD3-CD56bright (NK cells) and CD3-CD19+ (B cells), CD3+γδTCR+ cells, CD3+γδTCR bright cells, CD3+iTCR+ cells, Live WBC CD3-CD16bright granulocytes, Live WBC CD3-CD14+ monocytes. Numbers were reported as % WBC and as cells per μl.

[3] = system: lymphocytes and myeloid cells; assay: Humanized mice experiments LYDEP 43 and 45, lymphoid versus myeloid cells (FSC vs SSC); type: in vivo, mouse
Protocol: Female huNOG-EXL mice (n=6) were obtained from Taconic Bioscience (Germantown, NY). Female huCD34-NCG mice (n=8) were obtained from Charles River (Wilmington, MA). Mice from both facilities were acclimated to laboratory conditions for at least 5-6 days.
After first (03/01/2021) and second dose 1 week later (03/08/2021), when mice reached predetermined time point, they were bled up to 70 μL of blood/mouse via cheek puncture. The blood was analyzed via flow cytometry. After third dose 28 days after the previous dose (on Apr. 5, 2021), when mice reached the study time point, they were euthanized under standard operating procedure summarized here: Mice were anesthetized with isoflurane gas.
All flow cytometry was performed in house. Blood, spleen, thymus, and bone marrow were processed via standard staining protocol for flow cytometry. MACSQUANT 16 was used for flow cytometry. Antibody panels slightly varied between first, second and third dose. Markers in the flow panel after first dose analysis included Live/Dead, hCD45, mCD45, hCD56, hTCRgd, hCD3, hCD8, hCD16, hCD19, hCD14. Markers in the flow panel after second dose included all the above, plus hTCRab and hiTCR. In the blood analysis after second dose, 7AAD, CD14 and CD19 were included together in a dump channel. […] For the third dose panel design, when full sac was performed, all markers mentioned above were assigned unique channels to avoid overlap, but TCRab was not included in the final panel due to open channel limitations.
For cheek bleeds, 70 ul of blood was collected in EDTA coated microtainer and proceeded for immunostaining. […] Blood was stained for live dead marker for 10 min at Room temperature and then for the surface antibodies mentioned above for 20 minutes at room temperature in dark. RBCs were lysed with BD FACS lysing buffer and washed with DPBS and resuspended in 300 ul DBPS. 250 ul of sample was run on MACSquant 16 flow cytometer.

[4] = system: AVM-NKT cells (CD45 dim, CD56 very bright); assay: Flow cytometry of human subjects treated with acute high doses of dexamethasone (Example 7); type: in vivo; details: prostate cancer patient, 6 mg/kg (fourth infusion)
[5] = Compassionate use patients treated with AVM0703; type: in vivo, human
[6] = mouse M88, after a first dose (32 mg/kg)

SMILES: C[C@@H]1C[C@H]2[C@@H]3CCC4=CC(=O)C=C[C@]4(C)[C@@]3(F)[C@@H](O)C[C@]2(C)[C@@]1(O)C(=O)COP(=O)(O)O [AVM0703, dexamethasone sodium phosphate]
- WBCs, lymphocytes, platelets and RBCs ([1]; AVM0703-001 dose-escalation phase, doses between 6 mg/kg and 18 mg/kg): not depleted
- hemoglobin ([1]; R/R MCL patient, after 9 mg/kg infusion): clinically significantly increased
- Absolute lymphocyte counts (lymphocytosis) ([1]; patient 103-007 (mantle cell lymphoma), 12 mg/kg infusion, between day 4 and 7, 12 mg/kg): reduced to normal lymphocyte levels; also recorded: reduced lymphocytes
- monocytes, platelets, hematocrit and RBCs ([1]; patient 103-007, 12 mg/kg): spares normal blood cells; also recorded: not reduced
- neutrophils ([1]; patients in the AVM0703-001 trial in R/R NHL): some evidence of increased neutrophils
- % of the CD56+ cells positive for both γδTCR and iTCR ([2]; lysed whole blood, FIG. 14): 51%
- CD8 dim/-, % CD56+γδTCR+ ([2]; representative subject): ~98%
- CD14+, % CD56+γδTCR+ ([2]; representative subject): 67%
- CD16+, % CD56+γδTCR+ ([2]; representative subject): 86%
- CD19+, % CD56+γδTCR+ ([2]; representative subject): 85%
- NKp44 positive, % CD56+γδTCR+ ([2]; representative subject): ~97%
- iNKT positive, % CD56+γδTCR+ ([2]; representative subject): ~96%
- CD56+γδTCR+ cells, % of WBC ([2]; whole blood, within 30 minutes post infusion): 1.64%
- CD16 and NKp46 expression, % of the AVM_NKT cells ([2]; γδTCR+iTCR+ quadrant, FIG. 14): ~100%
- % of total mouse WBCs that were lymphoid cells, range ([3]; AVM0703 treated humanized mice): 2%-20.4%
- % of total mouse WBCs that were lymphoid cells, average ([3]; AVM0703 treated humanized mice (Placebo 12.7%)): 10.62%
- myeloid cell production ([3]; humanized mice that largely lack myeloid compartments): induced myeloid cell production
- human lymphocytes, % of total human WBCs ([3]; mouse M01, after a first dose): 67%
- mouse lymphocytes, % of total WBCs ([3]; mouse M01, after a first dose): 6.7%
- total lymphocytes, % of total WBCs ([3]; mouse M01, after a first dose): 35%
- human lymphocytes, % of total human WBCs ([3]; mouse M03, after a first dose): 47%
- mouse lymphocytes, % of total WBCs ([3]; mouse M03, after a first dose): 23.7%
- total lymphocytes, % of total WBCs ([3]; mouse M03, after a first dose): 40%
- human lymphocytes, % of total human WBCs ([3]; mouse M05, after a first dose): 50.1%
- mouse lymphocytes, % of total WBCs ([3]; mouse M05, after a first dose): 2.0%
- total lymphocytes, % of total WBCs ([3]; mouse M05, after a first dose): 20.9%
- human lymphocytes, % of total human WBCs ([3]; mouse M07, after a first dose): 58.2%
- mouse lymphocytes, % of total WBCs ([3]; mouse M07, after a first dose): 20.4%
- total lymphocytes, % of total WBCs ([3]; mouse M07, after a first dose): 41.9%
- human lymphocytes, % of total human WBCs ([3]; mouse M10, after a first dose): 37.5%
- mouse lymphocytes, % of total WBCs ([3]; mouse M10, after a first dose): 5.2%
- total lymphocytes, % of total WBCs ([3]; mouse M10, after a first dose): 28.1%
- human lymphocytes, % of total human WBCs [3, 6]: 58%
- mouse lymphocytes, % of total WBCs [3, 6]: 5.7%
- total lymphocytes, % of total WBCs [3, 6]: 32%
- novel CD45dim CD56 very bright cell population in blood ([4]; 1 hour after infusion, 6 mg/kg): observed; also recorded: evident
- novel CD45dim CD56 very bright cell population in blood ([4]; 3 hours after infusion): no longer observed
- time to immune infiltrate (skin turning red over the tumor area) ([5]; compassionate use patient with CNS squamous cell carcinoma, after starting an 18 mg/kg infusion): ≤ 30 min
- neutrophil production ([5]; compassionate use patient without neutrophils for 6 years): began making healthy active neutrophils
